Source: PubChem BioAssay (NCI)
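All cell lines were grown in 96-well plates and treated with compound for 48 hours. GI50 = concentration required for 50% inhibition of growth. The concentration for full growth arrest is given as TGI.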

System: KM12 colon
Assay: NCI tumour cell line growth inhibition, 48 h

SMILES	TGI [µM]	GI50 [µM]
Cc1[nH]c(=O)nc2[nH][nH]c(=O)c12	> 100	
C=C1C(=O)O[C@H]2[C@H]1CC/C(COC(=O)NCCCCNC(=O)OC/C1=C/CC[C@@]3(C)O[C@H]3[C@H]3OC(=O)C(=C)[C@@H]3CC1)=C\CC[C@@]1(C)O[C@@H]21	10.5	3.18
COc1ccc(-c2nc3ccccn3c2/C=C/C(=O)c2cc(OC)c(OC)c(OC)c2)cc1OC	11.4	2.52
O=C(N/N=C/c1cc(Br)ccc1O)N/N=C/c1cc(Br)ccc1O	> 100	
CCCN(CCC)C(=O)c1c([N+](=O)[O-])cc(C(F)(F)F)cc1[N+](=O)[O-]	> 100	
COc1cc2c3c(n(CCCN)c(=O)c2cc1OC)-c1ccc(C#N)cc1C3=O	> 100	4.88
COc1cc2[nH]c3c(c2cc1OC)CCN[C@]31CC[C@]2(CC3c4c(cc(OC)c(O)c42)CCN3C)C[C@H]1OC (stereo not given in full)	35.6	
O=C1c2ccccc2C(=O)C1(O)c1c[nH]c2ccccc12	> 100	
O=C(Nc1cc(Cl)c(Cl)cc1Cl)C(=O)C1C(=O)NC(=S)NC1=O	> 100	
Nc1ccccc1/C(O)=C1/CCOC1=O	> 100	
O=S(=O)(c1ccc(NC(=S)NC23CC4CC(CC(C4)C2)C3)cc1)N1CCCCC1	42.2	3.65
[N-]=[N+]=C1C(=O)NN=C1c1ccccc1	> 100	
CCOC(=O)N[C@@H]1C(CC(=O)OC)O[C@H]2OC(C)(C)O[C@H]21 (stereo not given in full)	> 100	
Cc1cc(NC(=S)SCc2ccc(F)cc2)c([N+](=O)[O-])cc1C	44.6	
CC12OC(C(=O)C13CC3)C1C(=O)c3ccc4c(ccc5ccccc54)c3C(=O)C12 (stereo not given)	59.5	22.9
Cc1cc2ncnn2cc1Nc1ncc2c(n1)n(C1CCOCC1)c(=O)n2C	> 100	14.5
COc1ccc(C(=O)c2cc(C)c(OC)c(C)c2)c(OC)c1O	> 100	< 0.017
CN(Cc1ccccc1)C(=O)c1ccccc1C(=O)O	> 100	
COc1cc(Cc2nccc3cc(OC)c(OC)cc23)c(C(C)=O)cc1OC	300	106
COC(=O)Nc1nc2ccc(C3(c4ccc(F)cc4)OCCO3)cc2[nH]1	> 100	0.352

System: M14 melanoma
Assay: NCI tumour cell line growth inhibition, 48 h

SMILES	GI50 [µM]	TGI [µM]
CC1(C)C(=O)/C(=C\c2cccnc2)C[C@]2(C)[C@H]3CC[C@@H]4[C@H]5[C@H](C(=O)/C=C/c6cccnc6)CC[C@]5(C(=O)O)CC[C@@]4(C)[C@]3(C)CC[C@@H]12	2.64	8.97
COc1cc2ncnc(-n3ncc4cc(NC(=O)Nc5ccccc5)ccc43)c2cc1OC	1.1	4.22
Cn1cc(C2(C)CC(C)(C)c3c2n(C)c2ccccc32)c2ccccc21 (stereo not given)		> 100
COc1ccc(C(=O)c2cc(OC)c(OC)c(OC)c2)cc1/C=C/C(=O)c1ccc(F)cc1	3.39	18
COC(=O)C(Cc1nc2ccccc2[nH]c1=O)C(NO)C(=O)Nc1c(Cl)cc([N+](=O)[O-])cc1Cl (stereo not given)		> 100
COC(=O)C(CC(=O)Nc1ccc(C)cc1)C(=O)C(=O)Nc1c(C(C)C)cccc1C(C)C (stereo not given)		> 100
OCC1OC(n2cnc3c2NC=NC[C@H]3O)C(Cl)C1O (stereo not given in full)		> 100
COc1ccc(C2=C(Cl)c3cc(OC)c(OC)cc3C2Cl)cc1 (stereo not given)		37.1
O=C(/C=C/c1ccc(Cl)c(Cl)c1)c1ccc2ccccc2c1		> 100
COc1ccc(-c2[nH]c3ccc(OC)cc3c2/C=C(\C#N)S(=O)(=O)c2ccccc2)cc1	0.494	18.2
C/C(=N\Nc1ccc(Cl)cn1)c1ccc2ccccc2n1	2.39	13.7
CC1=C(/C=C/Cl)CC(Cl)C(C)(Cl)C1 (stereo not given)		> 100
COc1c2c(cc3c1OCO3)[C@]13C=C[C@H](OC)C[C@H]1N(C2)CC3O (stereo not given in full)		> 100
Cc1[nH]c(=O)nc2[nH][nH]c(=O)c12		> 100
C=C1C(=O)O[C@H]2[C@H]1CC/C(COC(=O)NCCCCNC(=O)OC/C1=C/CC[C@@]3(C)O[C@H]3[C@H]3OC(=O)C(=C)[C@@H]3CC1)=C\CC[C@@]1(C)O[C@@H]21	1.97	4.82
COc1ccc(-c2nc3ccccn3c2/C=C/C(=O)c2cc(OC)c(OC)c(OC)c2)cc1OC	4.48	45.1

SMILES	GI50 [µM]	TGI [µM]
CCCN(CCC)C(=O)c1c([N+](=O)[O-])cc(C(F)(F)F)cc1[N+](=O)[O-]		> 100
COc1cc2c3c(n(CCCN)c(=O)c2cc1OC)-c1ccc(C#N)cc1C3=O	15.3	31.6
COc1cc2[nH]c3c(c2cc1OC)CCN[C@]31CC[C@]2(CC3c4c(cc(OC)c(O)c42)CCN3C)C[C@H]1OC (stereo not given in full)		29.5
O=C1c2ccccc2C(=O)C1(O)c1c[nH]c2ccccc12		> 100
c1ccc(C2N3CCCCC3[C@@H]3c4[nH]c5ccccc5c4CCN23)nc1 (stereo not given in full)		> 100
O=C(Nc1cc(Cl)c(Cl)cc1Cl)C(=O)C1C(=O)NC(=S)NC1=O		> 100
Nc1ccccc1/C(O)=C1/CCOC1=O		> 100
O=S(=O)(c1ccc(NC(=S)NC23CC4CC(CC(C4)C2)C3)cc1)N1CCCCC1	3.36	22.7
[N-]=[N+]=C1C(=O)NN=C1c1ccccc1		> 100
CCOC(=O)N[C@@H]1C(CC(=O)OC)O[C@H]2OC(C)(C)O[C@H]21 (stereo not given in full)		> 100
Cc1cc(NC(=S)SCc2ccc(F)cc2)c([N+](=O)[O-])cc1C		> 100
CC12OC(C(=O)C13CC3)C1C(=O)c3ccc4c(ccc5ccccc54)c3C(=O)C12 (stereo not given)	25.2	95
Cc1cc2ncnn2cc1Nc1ncc2c(n1)n(C1CCOCC1)c(=O)n2C	11.2	> 100
CN(Cc1ccccc1)C(=O)c1ccccc1C(=O)O		> 100
COc1cc(Cc2nccc3cc(OC)c(OC)cc23)c(C(C)=O)cc1OC		> 750

System: MOLT-4 leukemia
Assay: NCI tumour cell line growth inhibition, 48 h

SMILES	GI50 [µM]	TGI [µM]
CC1(C)C(=O)/C(=C\c2cccnc2)C[C@]2(C)[C@H]3CC[C@@H]4[C@H]5[C@H](C(=O)/C=C/c6cccnc6)CC[C@]5(C(=O)O)CC[C@@]4(C)[C@]3(C)CC[C@@H]12	2.22	11.5
COc1cc2ncnc(-n3ncc4cc(NC(=O)Nc5ccccc5)ccc43)c2cc1OC	0.86	3.56
Cn1cc(C2(C)CC(C)(C)c3c2n(C)c2ccccc32)c2ccccc21 (stereo not given)		> 100
COc1ccc(C(=O)c2cc(OC)c(OC)c(OC)c2)cc1/C=C/C(=O)c1ccc(F)cc1	3.24	29.3
COC(=O)C(Cc1nc2ccccc2[nH]c1=O)C(NO)C(=O)Nc1c(Cl)cc([N+](=O)[O-])cc1Cl (stereo not given)		67
COC(=O)C(CC(=O)Nc1ccc(C)cc1)C(=O)C(=O)Nc1c(C(C)C)cccc1C(C)C (stereo not given)		> 100
OCC1OC(n2cnc3c2NC=NC[C@H]3O)C(Cl)C1O (stereo not given in full)		> 100
COc1ccc(C2=C(Cl)c3cc(OC)c(OC)cc3C2Cl)cc1 (stereo not given)		> 59.4
O=C(/C=C/c1ccc(Cl)c(Cl)c1)c1ccc2ccccc2c1		> 100
COc1ccc(-c2[nH]c3ccc(OC)cc3c2/C=C(\C#N)S(=O)(=O)c2ccccc2)cc1	0.745	> 20.2
O=c1cc(NCC(O)CN2CCCC2)n(Cc2ccccc2)c(=O)n1Cc1ccccc1 (stereo not given)	24.3	72.8
C/C(=N\Nc1ccc(Cl)cn1)c1ccc2ccccc2n1	1.26	> 100
CC1=C(/C=C/Cl)CC(Cl)C(C)(Cl)C1 (stereo not given)		> 100
COc1c2c(cc3c1OCO3)[C@]13C=C[C@H](OC)C[C@H]1N(C2)CC3O (stereo not given in full)		> 100
Cc1[nH]c(=O)nc2[nH][nH]c(=O)c12		> 100
C=C1C(=O)O[C@H]2[C@H]1CC/C(COC(=O)NCCCCNC(=O)OC/C1=C/CC[C@@]3(C)O[C@H]3[C@H]3OC(=O)C(=C)[C@@H]3CC1)=C\CC[C@@]1(C)O[C@@H]21	1.47	4.15
O=C(N/N=C/c1cc(Br)ccc1O)N/N=C/c1cc(Br)ccc1O		> 100
CCCN(CCC)C(=O)c1c([N+](=O)[O-])cc(C(F)(F)F)cc1[N+](=O)[O-]		> 100
COc1cc2c3c(n(CCCN)c(=O)c2cc1OC)-c1ccc(C#N)cc1C3=O	0.748	3.49
COc1cc2[nH]c3c(c2cc1OC)CCN[C@]31CC[C@]2(CC3c4c(cc(OC)c(O)c42)CCN3C)C[C@H]1OC (stereo not given in full)		33.8
O=C1c2ccccc2C(=O)C1(O)c1c[nH]c2ccccc12		> 100
c1ccc(C2N3CCCCC3[C@@H]3c4[nH]c5ccccc5c4CCN23)nc1 (stereo not given in full)		> 100
O=C(Nc1cc(Cl)c(Cl)cc1Cl)C(=O)C1C(=O)NC(=S)NC1=O		> 100
Nc1ccccc1/C(O)=C1/CCOC1=O		> 100
O=S(=O)(c1ccc(NC(=S)NC23CC4CC(CC(C4)C2)C3)cc1)N1CCCCC1	3.24	11.4
[N-]=[N+]=C1C(=O)NN=C1c1ccccc1		> 100
CCOC(=O)N[C@@H]1C(CC(=O)OC)O[C@H]2OC(C)(C)O[C@H]21 (stereo not given in full)		> 100
Cc1cc(NC(=S)SCc2ccc(F)cc2)c([N+](=O)[O-])cc1C		16.9
CC12OC(C(=O)C13CC3)C1C(=O)c3ccc4c(ccc5ccccc54)c3C(=O)C12 (stereo not given)	28.9	> 100
